Tests used:
[1] = Stability profile of Decitabine pre-lyophilized bulk solution at 25° C. in water; type: physicochemical
Experimental: The manufacture of a freeze dried product necessitates that the product is usually first manufactured as a solution, filtered to sterilize, aseptically filled, and finally lyophilized to remove the solvents. All of these unit operations require that the product be held in the solution state for a defined period of time, at least for 4 hours. A batch of Decitabine bulk solution was prepared by dissolving the drug (5 mg/mL) and buffer (Potassium dihydrogen phosphate 6.8 mg/mL, sodium hydroxide 1.16 mg/mL) in water and at room temperature.

[2] = Freezing point of bulk solution of Decitabine using various solvents and buffers; type: physicochemical
From the text: The advantages of using these non-aqueous solvent systems include: increased drug wetting or solubility, increased sublimation rates, increased pre-dried bulk solution or dried product stability, decreased reconstitution time, and enhancement of sterility assurance of the pre-dried bulk solution. A pre-requisite for such a solvent to be utilized efficiently for depression of freezing point of water would be to have satisfactory drug solubility in solvent system. […] Various solvents were evaluated for intended purpose e.g. Dimethylsulfoxide (1-30%), Ethanol (1-30%), Tertiary-butanol (1-30%), and their combinations were used in the range of 1-30% and thus were evaluated for their effect in decreasing the freezing point of bulk solution as summarized in Table VII. Although Ethanol decreased the freezing point of the drug solution and ensured drug solubility at low temperature, it was not suitable as a solvent for lyophilization as lyophilized cake could not be formed using this solvent system. Dimethyl sulphoxide is not suitable solvent for Lyophilization as it is difficult to remove during lyophilization.

[3] = Stability profile of Decitabine pre-lyophilized bulk solution at −1° C. in water; type: physicochemical
[4] = Solution stability of Decitabine bulk solution in Water:Acetonitrile 80:20% v/v at −5 ± 2° C.; type: physicochemical
[5] = cited from earlier work
[6] = Initial (5 minutes after drug dissolution)

Nc1ncn([C@H]2C[C@H](O)[C@@H](CO)O2)c(=O)n1 [Decitabine, 5-aza-2′ deoxycytidine]
Related Substances: 5-Azacytosine ([1]; 2 h): 0.05% | Related Substances: H-unk (Highest Unknown Impurity) ([1]; 2 h): 12.42% | Related Substances: Six member Decitabine ([1]; 2 h): 0.34% | Related Substances: Total ([1]; 2 h): 25.44% | Related Substances: α-Decitabine ([1]; 2 h): 0.00% | Related Substances: 5-Azacytosine ([1]; 4 h): 0.05% | Related Substances: H-unk (Highest Unknown Impurity) ([1]; 4 h): 14.14% | Related Substances: Six member Decitabine ([1]; 4 h): 0.81% | Related Substances: Total ([1]; 4 h): 31.46% | Related Substances: α-Decitabine ([1]; 4 h): 0.00% | Related Substances: 5-Azacytosine [1, 6]: 0.00% | Related Substances: H-unk (Highest Unknown Impurity) [1, 6]: 10.89% | Related Substances: Six member Decitabine [1, 6]: 0.05% | Related Substances: Total [1, 6]: 12.12% | Related Substances: α-Decitabine [1, 6]: 0.00% | Freezing Point of bulk solution ([2]; 5% DMSO + 10% Ethanol + 20% Tertiary-butanol + buffer): −8 to −10 °C | Freezing Point of bulk solution ([2]; 5% DMSO +10% Ethanol + buffer): −5 °C | Freezing Point of bulk solution ([2]; 5% DMSO + 15% Ethanol + buffer): −6 to −9 °C | Freezing Point of bulk solution ([2]; Acetonitrile 5%): −2 to −3 °C | Freezing Point of bulk solution ([2]; Acetonitrile 10%): −3 to −4 °C | Freezing Point of bulk solution ([2]; Acetonitrile 15%): −4 to −6 °C | Freezing Point of bulk solution ([2]; Acetonitrile 20%): −8 °C | Freezing Point of bulk solution ([2]; DMSO 1%): −0.5 °C | Freezing Point of bulk solution ([2]; DMSO 2%): −0.8 °C | Freezing Point of bulk solution ([2]; DMSO 5%): −1.6 °C | Freezing Point of bulk solution ([2]; DMSO 10%): −3.0 °C | Freezing Point of bulk solution ([2]; DMSO 15%): −5.5 °C | Freezing Point of bulk solution ([2]; DMSO 20%): −13.9 °C | Freezing Point of bulk solution ([2]; DMSO 30%): −16.0 °C | Freezing Point of bulk solution ([2]; Ethanol 1%): −0.5 °C | Freezing Point of bulk solution ([2]; Ethanol 2%): −0.7 °C | Freezing Point of bulk solution ([2]; Ethanol 5%): −2.0 °C | Freezing Point of bulk solution ([2]; Ethanol 10%): −2.5 °C | Freezing Point of bulk solution ([2]; Ethanol 15%): −6.1 °C | Freezing Point of bulk solution ([2]; Ethanol 20%): −13.8 °C | Freezing Point of bulk solution ([2]; Ethanol 30%): −14.3 °C | Freezing Point of bulk solution ([2]; Tertiary-butanol 1%): −0.1 °C | Freezing Point of bulk solution ([2]; Tertiary-butanol 2%): −1.0 °C | Freezing Point of bulk solution ([2]; Tertiary-butanol 5%): −2.5 °C | Freezing Point of bulk solution ([2]; Tertiary-butanol 10%): −4.3 °C | Freezing Point of bulk solution ([2]; Tertiary-butanol 15%): −6.0 °C | Freezing Point of bulk solution ([2]; Tertiary-butanol 20%): −9.3 °C | Freezing Point of bulk solution ([2]; Tertiary-butanol 30%): −12.9 °C | Freezing Point of bulk solution ([2]; n-butanol): Restricted Miscibility | Related Substances: 5-Azacytosine ([3]; 1 hr): 0.03% | Related Substances: H-unk (Highest Unknown Impurity) ([3]; 1 hr): 0.05% | Related Substances: SP1 ([3]; 1 hr): 0.03% | Related Substances: SP2 ([3]; 1 hr): 0.01% | Related Substances: SP3 ([3]; 1 hr): 0.06% | Related Substances: SP4 ([3]; 1 hr): 0.85% | Related Substances: SP6 ([3]; 1 hr): 0.07% | Related Substances: Total ([3]; 1 hr): 1.25% | Related Substances: α-Decitabine ([3]; 1 hr): 0.02% | Related Substances: 5-Azacytosine ([3]; 2 hr): 0.04% | Related Substances: H-unk (Highest Unknown Impurity) ([3]; 2 hr): 0.05% | Related Substances: SP1 ([3]; 2 hr): 0.03% | Related Substances: SP2 ([3]; 2 hr): 0.02% | Related Substances: SP3 ([3]; 2 hr): 0.05% | Related Substances: SP4 ([3]; 2 hr): 1.50% | Related Substances: SP6 ([3]; 2 hr): 0.22% | Related Substances: Total ([3]; 2 hr): 2.06% | Related Substances: α-Decitabine ([3]; 2 hr): 0.02% | Related Substances: 5-Azacytosine ([3]; 3 hr): 0.03% | Related Substances: H-unk (Highest Unknown Impurity) ([3]; 3 hr): 0.05% | Related Substances: SP1 ([3]; 3 hr): 0.03% | Related Substances: SP2 ([3]; 3 hr): 0.02% | Related Substances: SP3 ([3]; 3 hr): 0.05% | Related Substances: SP4 ([3]; 3 hr): 2.13% | Related Substances: SP6 ([3]; 3 hr): 0.21% | Related Substances: Total ([3]; 3 hr): 2.68% | Related Substances: α-Decitabine ([3]; 3 hr): 0.02% | Related Substances: 5-Azacytosine ([3]; 4 hr): 0.03% | Related Substances: H-unk (Highest Unknown Impurity) ([3]; 4 hr): 0.05% | Related Substances: SP1 ([3]; 4 hr): 0.03% | Related Substances: SP2 ([3]; 4 hr): 0.04% | Related Substances: SP3 ([3]; 4 hr): 0.05% | Related Substances: SP4 ([3]; 4 hr): 1.71% | Related Substances: SP6 ([3]; 4 hr): 0.95% | Related Substances: Total ([3]; 4 hr): 3.07% | Related Substances: α-Decitabine ([3]; 4 hr): 0.01% | Related Substances: 5-Azacytosine ([3]; Initial): 0.03% | Related Substances: H-unk (Highest Unknown Impurity) ([3]; Initial): 0.05% | Related Substances: SP1 ([3]; Initial): 0.03% | Related Substances: SP2 ([3]; Initial): 0.01% | Related Substances: SP3 ([3]; Initial): 0.06% | Related Substances: SP4 ([3]; Initial): 0.35% | Related Substances: SP6 ([3]; Initial): 0.04% | Related Substances: Total ([3]; Initial): 0.70% | Related Substances: 5-Azacytosine ([4]; 4 hrs): 0.02% | Related Substances: H-unk (Highest Unknown Impurity) ([4]; 4 hrs): 0.03% | Related Substances: SP4 ([4]; 4 hrs): 0.28% | Related Substances: SP6 ([4]; 4 hrs): 0.29% | Related Substances: Total ([4]; 4 hrs): 0.67% | Related Substances: 5-Azacytosine ([4]; Initial): 0.01% | Related Substances: H-unk (Highest Unknown Impurity) ([4]; Initial): 0.03% | Related Substances: SP4 ([4]; Initial): 0.04% | Related Substances: SP6 ([4]; Initial): 0.05% | Related Substances: Total ([4]; Initial): 0.17% | Maximum storage time of diluted solution until administration ([5]; prepared with cold (2° C.-8° C.) infusion fluids, stored at 2° C.-8° C.): ≤ 7 h | Time of use after reconstitution without cold infusion fluids ([5]; reconstituted with Sterile Water for Injection): ≤ 15 min

Source: patent publication US9872873B2, “Process for preparing stable pharmaceutical compositions of compounds susceptible to hydrolysis” (Fresenius Kabi Oncology Limited, priority 2012, dated 2018)
